Assay [1] is described as follows: Cytotoxicity against human T24 cells assessed as reduction of cell count at 50 uM after 24 hrs. Type of assay: functional, T-24. On the set-up: scale not given: the % may be the effect or the level left.
Assay [2] in a line: Cytotoxicity against human T24 cells assessed as reduction of cell viability at 50 uM after 48 hrs by MTT assay. Type of assay: functional, T-24. On the technique in general: Formazan colour is commonly taken as a measure of viable cells.
Assay [3] in a line: Cytotoxicity against human T24 cells assessed as reduction of cell viability at 50 uM after 24 hrs by MTT assay. Type of assay: functional, T-24.
In assay [4] the test system is RT-4. The assay can be described thus: Cytotoxicity against human RT4 cells assessed as reduction of cell viability at 5 to 100 uM after 24 hrs by MTT assay. In kind it is functional, cell-based.
Assay [5] can be described thus: Cytotoxicity against human T24 cells assessed as reduction of cell viability at 10 uM after 48 hrs by MTT assay. In kind it is functional, T-24.
Assay [6] in a line: Cytotoxicity against human T24 cells assessed as reduction of cell viability at 25 uM after 48 hrs by MTT assay. In kind it is functional, T-24.
A short description of assay [7]: Cytotoxicity against human T24 cells assessed as reduction of cell viability at 100 uM after 48 hrs by MTT assay. In kind it is functional, T-24.
The nature of assay [8]: Cell cycle arrest in human T24 cells assessed as accumulation at sub-G1 phase at 50 to 100 uM after 24 hrs by flow cytometry assay. Type of assay: functional, cell-based. Conditions: T-24. For orientation: A flow cytometer gives signals particle by particle.
Assay [9] has as its system T-24. The assay can be described thus: Induction of apoptosis in human T24 cells at 50 uM after 24 hrs using annexin V/propidium iodide staining by flow cytometry assay. In kind it is functional.

Molecules are shown by their SMILES. Calls of active or inactive are those of the source. No cut-off for these calls is given here.

`Cc1cc(=O)oc2c(O)c(O)cc(C(=O)O)c12`: the Activity in [1] came to 44.52%; in [2] it was 63.95%; in assay [3], 24.14%; in assay [5], 21.37%; in assay [6], 62.26%; in assay [7], 65.64%. This compound also gave an Activity in [9] of 22.57%. In [4], the outcome was inactive. The result in assay [8] was Active.

The record behind these values is ChEMBL document CHEMBL3739313, “4-Methylcoumarins with cytotoxic activity against T24 and RT4 human bladder cancer cell lines” (2015).
